From patent US20080161404A1 (ASTRAZENECA AB, priority 2005, published 2008)
Values joined by “and” are separate entries in the source; they are usually repeats but may differ in a detail not shown here. Equal values may be shown once. Read-outs that look alike come from different tables or passages of the source.

Tests used:
[1] = test system: advanced prostate cancer (M0 or M1); test: Survival (Kaplan-Meier time to death) versus castration in patients with advanced prostate cancer (Example 1); details: 450-600 mg
Method: Tolerability was similarly assessed at 450 mg/day (3 tablets) and 600 mg/day (4 tablets).
After objective disease progression, patients were followed up every 3 months for survival and/or adverse event data.
Results are presented as for both the overall patient population and also by disease stage (M0 or M1).

[2] = cited from earlier work
serum PSA levels = test: Change in serum PSA levels in M0/M1 prostate cancer patients (Example 1); type: in vivo, human
Protocol: Patients had histologically or cytologically confirmed M0 (T3 or T4) or M1 prostate cancer and a PSA level ≧20 ng/mL.

[3] = Clinical pharmacokinetics of (R)-bicalutamide (Css, t1/2) in prostate cancer patients given bicalutamide 300-600 mg once daily (Example 1); type: in vivo, human; details: for Steady state plasma conc. geometric mean: (R)-bicalutamide
Protocol: Plasma samples were stored at −20° C. until analysis. […] Quantification of the enantiomers was achieved using ultra-violet absorbance.
Method: Assays were performed using 0.5 ml plasma aliquots. […] A further control compound (internal standard) was added to each sample, along with 1.5 ml of pH 7 0.05M phosphate buffer (Electronic Instruments Ltd.) and 6 mls of ethyl acetate. The samples were mixed and then centrifuged and a 5 ml aliquot of the ethyl acetate layer (upper layer) was removed and evaporated to dryness in a polypropylene tube. The residue was re-dissolved in 400 μl of water:acetonitrile (70:30 v/v).
The fraction was evaporated to dryness and reconstituted in 400 μl of an HPLC eluent; 0.02 M pH 7 phosphate buffer; acetonitrile (85:15 v/v). 200 μl of the reconstituted fraction was then injected onto the chiral chromatographic system.

Molecule	events (deaths), share of patients ([1]; M0 patients, 28/74) [%]	events (deaths), share of patients ([1]; M1 patients, 43/63) [%]	events (deaths), share of patients ([1]; all patients, median 5 years follow up, 71/137) [%]	t1/2 of (R)-bicalutamide ([2]; bicalutamide doses of 10-200 mg) [h]	mean steady state plasma concentration of R-bicalutamide ([2]; patients, 150 mg daily)	plasma concentration of (R)-bicalutamide (Css) ([2]; patients, bicalutamide 200 mg) [ng/mL]	percentage decrease in PSA (serum PSA levels; Week 12, bicalutamide 300 mg) [%]	percentage decrease in PSA (serum PSA levels; Week 12, bicalutamide 450 mg) [%]	percentage decrease in PSA (serum PSA levels; Week 12, bicalutamide 600 mg) [%]	percentage reduction in geometric mean PSA compared with castration group (serum PSA levels; baseline to Week 4)	Steady state plasma conc. geometric mean ([3]; 300 mg once daily, 18 patients) [µg/mL]	Steady state plasma conc. geometric mean ([3]; 450 mg once daily, 82 patients) [µg/mL]	Steady state plasma conc. geometric mean ([3]; 600 mg once daily, 34 patients) [µg/mL]	plasma concentration of (R)-bicalutamide higher than with bicalutamide 150 mg ([3]; doses ≥300 mg vs 150 mg (21.6 μg/mL))	plasma concentration of (R)-bicalutamide higher than with bicalutamide 200 mg ([3]; doses ≥300 mg vs 200 mg (28.9 μg/mL))	mean steady state plasma concentration of R-bicalutamide ([3]; patients, conventional tablets, doses of 300 mg/day and above (300-600 mg)) [µg/mL]	share of the total circulating enantiomers at steady state ([2]; steady state)
4′-cyano-α′,α′,α′-trifluoro-3-(4-fluorophenylsulphonyl)-2-hydroxy-2-methylpropiono-m-toluidide [Bicalutamide]	37.8	68.3	51.8	150 to 213	21.6 µg/mL and 21 µg/mL	28900	93	95	96	greater percentage reductions in geometric mean PSA values	35	31	36	approximately 50%	approximately 15%	31 to 36	
C[C@](O)(CS(=O)(=O)c1ccc(F)cc1)C(=O)Nc1ccc(C#N)c(C(F)(F)F)c1 [R-Bicalutamide]																	approximately 99%
